Experimental data reported in PMC8175350, “Drug repurposing screens identify chemical entities for the development of COVID-19 interventions” (Nature Communications, 2021).
Counter-ions that a name gives are not always drawn. Like-named read-outs stand apart in the source and are kept apart here.

What was measured:
in vitro = details: human
SARS-CoV-2 [1] = assay: microbe, parasite or virus in culture; assay type: cell-based; details: for Emax: Severe acute respiratory syndrome coronavirus 2, HeLa-ACE2, 24 h, curve-fit effect at infinite concentration, average, read-out: HeLa-ACE2 CoV-2 Sinf Average
Calu-3 cells [2] = test system: Calu-3 cells
[3] = Uninfected HeLa-ACE2 24 h live/dead cytotoxicity counter screen; assay type: cell-based, human; details: human, uninfected HeLa-ACE2 cells
Calu-3 cells [4] = assay: cells; details: Homo sapiens; for Emax: Calu-3, 48 h
HeLa-ACE2 cells [5] = assay: cells; details: Homo sapiens; for Emax: HeLa-ACE2, 24 h, read-out: HeLa-ACE2 cell count Sinf Average
SARS-CoV-2 [6] = assay: microbe, parasite or virus in culture; assay type: cell-based; details: for Emax: Severe acute respiratory syndrome coronavirus 2, Calu-3, 48 h; for EC50: read-out: Calu-3 CoV-2 EC50 GeoMean
HeLa-ACE2 cells [7] = assay: Uninfected HeLa-ACE2 24 h live/dead cytotoxicity counter screen; assay type: cell-based, human; details: for HeLa-ACE2 uninfected cytotoxicity Sinf Average (%): Sinf average of the curves; for HeLa-ACE2 uninfected cytotoxicity Sinf Average: curve-fit effect at infinite concentration
[8] = Calu-3 uninfected cytotoxicity CC50 GeoMean
[9] = unrounded geometric mean, read-out: HeLa-ACE2 uninfected cytotoxicity CC50 GeoMean
[10] = read-out: Calu-3 cell count Sinf Average
[11] = curve-fit effect at infinite concentration, average, read-out: Calu-3 CoV-2 Sinf Average
[12] = Severe acute respiratory syndrome coronavirus 2, Calu-3, unrounded geometric mean
[13] = Severe acute respiratory syndrome coronavirus 2, HeLa-ACE2, geometric mean of replicates, read-out: HeLa-ACE2 CoV-2 EC50 GeoMean
[14] = geometric mean of replicates, read-out: HeLa-ACE2 uninfected cytotoxicity CC50 GeoMean
[15] = read-out: Calu-3 cell count Sinf Average (%)
[16] = Calu-3, read-out: Calu-3 cell count EC50 GeoMean (µM), geometric mean of replicates
[17] = HeLa-ACE2, read-out: HeLa-ACE2 cell count EC50 GeoMean (µM), geometric mean of replicates
[18] = Sinf average of the curves, read-out: Calu-3 CoV-2 Sinf Average (%)
[19] = Severe acute respiratory syndrome coronavirus 2, Calu-3, geometric mean of replicates
[20] = Calu-3 uninfected cytotoxicity CC50 GeoMean (µM)
[21] = Calu-3 uninfected cytotoxicity CC50 GeoMean, unrounded geometric mean
[22] = Severe acute respiratory syndrome coronavirus 2, HeLa-ACE2, unrounded geometric mean, read-out: HeLa-ACE2 CoV-2 EC50 GeoMean
[23] = Calu-3, read-out: Calu-3 cell count EC50 GeoMean, unrounded geometric mean
[24] = HeLa-ACE2, read-out: HeLa-ACE2 cell count EC50 GeoMean, unrounded geometric mean
[25] = uninfected cells, Fig. 2b group, read-out: HeLa-ACE2 CC50

| SMILES | Calu-3 uninfected cytotoxicity Sinf Average (Calu-3 cells [2]; human) [%] | CC50 at 24 h [3, 9] [µM] | Emax (Calu-3 cells [4]; [10]) [%] | Emax (SARS-CoV-2 [6]; [11]) [%] | EC50 (SARS-CoV-2 [6]; [12]) [µM] | EC50 (SARS-CoV-2 [1]; [13]) [µM] | CC50 at 24 h [3, 14] [µM] | HeLa-ACE2 uninfected cytotoxicity Sinf Average (%) (HeLa-ACE2 cells [7]) | EC50 (Calu-3 cells [4]; [16]) [µM] | EC50 (HeLa-ACE2 cells [5]; [17]) [µM] | Emax (SARS-CoV-2 [6]; [18]) [%] | EC50 (SARS-CoV-2 [6]; [19]) [µM] | CC50 (in vitro; [21]) [µM] | EC50 (SARS-CoV-2 [1]; [22]) [µM] | EC50 (Calu-3 cells [4]; [23]) [µM] | EC50 (HeLa-ACE2 cells [5]; [24]) [µM] | Emax (SARS-CoV-2 [1]) [%] | HeLa-ACE2 uninfected cytotoxicity Sinf Average (HeLa-ACE2 cells [7]) [%] | further results |
| --- | --- | --- | --- | --- | --- | --- | --- | --- | --- | --- | --- | --- | --- | --- | --- | --- | --- | --- | --- |
| CCc1ccc(C2=CC(C)(C)Sc3ccc(C#Cc4ccc(C(=O)O)cc4)cc32)cc1 [AGN-194310] | -100 | > 39.8 | 100 | 85 | 0.597 | – | – | – | – | – | – | – | – | – | – | – | – | – | CC50 (in vitro; [8]): > 29.9 µM; EC50 (SARS-CoV-2 [1]; Severe acute respiratory syndrome coronavirus 2, HeLa-ACE2, read-out: HeLa-ACE2 CoV-2 EC50 GeoMean): > 9.59 µM; uninfected Calu-3 CC50 (Calu-3 cells [2]): > 29.867 ×÷ 1 (n=3) μM; EC50 (Calu-3 cells [4]; Calu-3, read-out: Calu-3 cell count EC50 GeoMean): > 7.77 µM; EC50 (HeLa-ACE2 cells [5]; HeLa-ACE2, read-out: HeLa-ACE2 cell count EC50 GeoMean): > 9.59 µM |
| CCCCCC[C@H]1C(=O)O[C@H](C)[C@H](NC(=O)c2cccc(NC=O)c2O)C(=O)O[C@@H](C)[C@@H]1OC(=O)CC(C)C [Antimycin A] | – | – | – | – | – | > 9.59 | > 39.8 | -100 | 0.22 | > 9.59 | 93 | < 0.0277 | – | – | – | – | – | – | Calu-3 uninfected cytotoxicity CC50 GeoMean (Calu-3 cells [2]; human): > 0.6084 µM; uninfected Calu-3 CC50 [μM] (Calu-3 cells [2]; human): > 0.608 ×÷ 246.09 (n=2) μM; Emax (Calu-3 cells [4]; [15]): 48% |
| O=c1[nH]c2ccc(C(F)(F)F)cc2c(-c2cc(Cl)ccc2O)c1CCO [BMS-223131] | – | – | – | – | – | > 9.59 | 21.4 | -100 | > 9.98 | > 9.59 | 100 | 5.14 | – | – | – | – | – | – | CC50 at 48 h (in vitro; [20]): > 29.9 µM; uninfected Calu-3 CC50 [μM] (Calu-3 cells [2]): > 29.867 ×÷ 1 (n=3) μM; Calu-3 uninfected cytotoxicity Sinf Average (%) (Calu-3 cells [2]; human, 48 h): -100%; Emax (Calu-3 cells [4]; [15]): 100% |
| CN(C)C(=O)COC(=O)Cc1ccc(OC(=O)c2ccc(NC(=N)N)cc2)cc1 [Camostat mesylate] | – | > 39.8 | 78 | 89 | 0.0536 | – | – | – | – | – | – | – | > 29.9 | > 9.59 | 0.0913 | > 9.59 | – | – | – |
| C[C@@H]1C[C@@H]([C@H](O)CC2CC(=O)NC(=O)C2)C(=O)[C@@H](C)C1 [Cycloheximide] | -39 | 1.47 | 50 | 98 | 0.195 | – | – | – | – | – | – | – | > 2.43 | 0.634 | 0.268 | > 9.44 | 101 | -80 | CC50 at 24 h [3, 25]: ≤ 3 µM; Emax (HeLa-ACE2 cells [5]): 100% |
| CNC(=O)n1ccc2cc(Oc3ccnc(NC(=O)c4ccc(C5CCN(CCO)CC5)cc4)c3)c(OCCOC)cc21 [E-7090] | – | 21.2 | 73 | 62 | 0.753 | – | – | – | – | – | – | – | – | 2.64 | > 2.59 | > 9.59 | 100 | -100 | CC50 at 48 h (in vitro; [8]): 15 µM; uninfected Calu-3 CC50 (Calu-3 cells [2]): 14.98 ×÷ 1.32 (n=3) μM; Calu-3 uninfected cytotoxicity Sinf Average (Calu-3 cells [2]; human, 48 h): -97% |
| CC[C@H]1CN2CCc3cc(OC)c(OC)cc3[C@@H]2C[C@@H]1C[C@H]1NCCc2cc(OC)c(OC)cc21 [Emetine] | -47 | 0.34 | 78 | 100 | 0.444 | – | – | – | – | – | – | – | > 8.87 | 0.0601 | > 3.56 | 0.783 | 100 | -99 | CC50 at 24 h [3, 25]: ≤ 3 µM; Emax (HeLa-ACE2 cells [5]): 98% |
| N#Cc1cccc(C(C(=O)NCC(c2ccccc2)c2ccccc2)N(CCc2c[nH]cn2)C(=O)c2ccccc2C(=O)c2ccccc2)c1 (stereo not shown) [GENZ-29155] | – | – | – | – | – | > 9.59 | > 38.5 | -67 | > 9.98 | > 9.59 | 79 | > 4.66 | – | – | – | – | – | – | CC50 at 48 h (in vitro; [20]): > 29.9 µM; HeLa-ACE2 CoV-2 Sinf Average (%) (SARS-CoV-2 [1]; Sinf average of the curves): -67%; uninfected Calu-3 CC50 [μM] (Calu-3 cells [2]): > 29.867 ×÷ 1 (n=3) μM; Calu-3 uninfected cytotoxicity Sinf Average (%) (Calu-3 cells [2]; human, 48 h): 0% |
